#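 Compound exposure: 48 hours, 5 concentrations, 96-well plates. Abbreviation: GI50, concentration required for 50% inhibition of growth.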 The source made the active and inactive calls. Cut-off read from the data, not from the text of the source: active = GI50 up to about 1.1 µM and inactive = higher.
# Assays:
# Test in all cases: NCI-60 cell line screen, 48 h
# SK-OV-3 = system: SK-OV-3
# A549 = system: A549
# SK-MEL-2 = system: SK-MEL-2
# OVCAR-5 = system: OVCAR-5
# KM-20L2 = system: KM-20L2
# DLD-1 = system: DLD-1
# UO-31 = system: UO-31
# NCI-H226 = system: NCI-H226
# SNB-75 = system: SNB-75
# SW-620 = system: SW-620
# NCI-H460 = system: NCI-H460
# CAKI-1 = system: CAKI-1
# Malme-3M = system: Malme-3M
# HOP-92 = system: HOP-92
# SN12C = system: SN12C
# RXF 393 = system: RXF 393
# M14 = system: M14
# LXFL 529 = system: LXFL 529
# IGROV-1 = system: IGROV-1
# OVCAR-3 = system: OVCAR-3
# CCRF-CEM = system: CCRF-CEM
# TK-10 = system: TK-10
# NCI-H23 = system: NCI-H23
# EKVX = system: EKVX
# KM12 = system: KM12
# 786-0 = system: 786-0
# U-251 = system: U-251
# A498 = system: A498
# UACC-257 = system: UACC-257
# SK-MEL-5 = system: SK-MEL-5
# SF-268 = system: SF-268
# HCT-116 = system: HCT-116
# HOP-18 = system: HOP-18
# NCI-H522 = system: NCI-H522
# HCT-15 = system: HCT-15
# DMS-273 = system: DMS-273
# OVCAR-4 = system: OVCAR-4
# UACC-62 = system: UACC-62
# COLO 205 = system: COLO 205
# SK-MEL-28 = system: SK-MEL-28
# ACHN = system: ACHN
# SF-539 = system: SF-539
# K562 = system: K562
# DMS-114 = system: DMS-114
# HOP-62 = system: HOP-62
# OVCAR-8 = system: OVCAR-8
# M19-MEL = system: M19-MEL
# SF-295 = system: SF-295
# MOLT-4 = system: MOLT-4
# XF498 = system: XF498
# HCC 2998 = system: HCC 2998
# HT-29 = system: HT-29
# LOX IMVI = system: LOX IMVI
# SNB-19 = system: SNB-19
# SNB-78 = system: SNB-78
# RPMI-8226 = system: RPMI-8226
# HL-60 = system: HL-60
structure (smiles),measurement,setting,value
S=C(N/N=C/c1ccco1)NC12CC3CC(CC(C3)C1)C2,GI50,SK-OV-3,> 100 µM (inactive)
same,GI50,A549,> 100 µM (inactive)
same,GI50,SK-MEL-2,> 100 µM (inactive)
same,GI50,OVCAR-5,> 100 µM (inactive)
same,GI50,KM-20L2,42.8 µM (inactive)
same,GI50,DLD-1,> 100 µM (inactive)
same,GI50,UO-31,> 100 µM (inactive)
same,GI50,NCI-H226,> 100 µM (inactive)
same,GI50,SNB-75,83.8 µM (inactive)
same,GI50,SW-620,> 100 µM (inactive)
same,GI50,NCI-H460,66.2 µM (inactive)
same,GI50,CAKI-1,> 100 µM (inactive)
same,GI50,Malme-3M,> 100 µM (inactive)
same,GI50,HOP-92,47 µM (inactive)
same,GI50,SN12C,> 100 µM (inactive)
same,GI50,RXF 393,> 100 µM (inactive)
same,GI50,M14,> 100 µM (inactive)
same,GI50,LXFL 529,52.2 µM (inactive)
same,GI50,IGROV-1,> 100 µM (inactive)
same,GI50,OVCAR-3,84.1 µM (inactive)
same,GI50,CCRF-CEM,54.2 µM (inactive)
same,GI50,TK-10,49.5 µM (inactive)
same,GI50,NCI-H23,> 100 µM (inactive)
same,GI50,EKVX,> 100 µM (inactive)
same,GI50,KM12,> 100 µM (inactive)
same,GI50,786-0,62.7 µM (inactive)
same,GI50,U-251,73.8 µM (inactive)
same,GI50,A498,> 100 µM (inactive)
same,GI50,UACC-257,32.2 µM (inactive)
same,GI50,SK-MEL-5,73.8 µM (inactive)
same,GI50,SF-268,> 100 µM (inactive)
same,GI50,HCT-116,> 100 µM (inactive)
same,GI50,HOP-18,> 100 µM (inactive)
same,GI50,NCI-H522,36.7 µM (inactive)
same,GI50,HCT-15,47.4 µM
same,GI50,DMS-273,6.05 µM (inactive)
same,GI50,OVCAR-4,65.3 µM (inactive)
same,GI50,UACC-62,29.9 µM (inactive)
same,GI50,COLO 205,15.3 µM (inactive)
same,GI50,SK-MEL-28,> 100 µM (inactive)
same,GI50,ACHN,> 100 µM (inactive)
same,GI50,SF-539,> 100 µM (inactive)
same,GI50,K562,43.8 µM (inactive)
same,GI50,DMS-114,37.3 µM (inactive)
same,GI50,HOP-62,> 100 µM (inactive)
same,GI50,OVCAR-8,> 100 µM (inactive)
same,GI50,M19-MEL,> 100 µM (inactive)
same,GI50,SF-295,> 100 µM (inactive)
same,GI50,MOLT-4,39.4 µM (inactive)
same,GI50,XF498,> 100 µM (inactive)
same,GI50,HCC 2998,74.8 µM (inactive)
same,GI50,HT-29,31.4 µM (inactive)
same,GI50,LOX IMVI,86.5 µM (inactive)
same,GI50,SNB-19,> 100 µM (inactive)
same,GI50,SNB-78,> 100 µM (inactive)
CC1=C(C(=O)CC(=O)C(=O)NC2C3CC4CC(C3)CC2C4)Sc2ccccc2N1 (centres undefined),GI50,SK-OV-3,> 31.6 µM (inactive)
same,GI50,A549,> 100 µM (inactive)
same,GI50,SK-MEL-2,> 100 µM (inactive)
same,GI50,OVCAR-5,> 100 µM (inactive)
same,GI50,RPMI-8226,74.6 µM (inactive)
same,GI50,KM-20L2,> 100 µM (inactive)
same,GI50,DLD-1,> 100 µM (inactive)
same,GI50,UO-31,> 60.3 µM (inactive)
same,GI50,SNB-75,> 100 µM (inactive)
same,GI50,SW-620,> 100 µM (inactive)
same,GI50,NCI-H460,> 100 µM (inactive)
same,GI50,CAKI-1,99.1 µM (inactive)
same,GI50,Malme-3M,> 100 µM (inactive)
same,GI50,HOP-92,20.1 µM (inactive)
same,GI50,SN12C,> 100 µM (inactive)
same,GI50,RXF 393,> 100 µM (inactive)
same,GI50,M14,> 100 µM (inactive)
same,GI50,LXFL 529,> 100 µM (inactive)
same,GI50,IGROV-1,> 100 µM (inactive)
same,GI50,HL-60,> 100 µM (inactive)
same,GI50,OVCAR-3,> 100 µM (inactive)
same,GI50,TK-10,> 100 µM (inactive)
same,GI50,NCI-H23,> 100 µM (inactive)
same,GI50,EKVX,> 100 µM (inactive)
same,GI50,KM12,> 86.3 µM (inactive)
same,GI50,786-0,> 100 µM (inactive)
same,GI50,U-251,> 100 µM (inactive)
same,GI50,A498,> 100 µM (inactive)
same,GI50,UACC-257,> 100 µM (inactive)
same,GI50,SK-MEL-5,> 83.6 µM (inactive)
same,GI50,SF-268,> 94.8 µM (inactive)
same,GI50,HOP-18,86.1 µM (inactive)
same,GI50,NCI-H522,97.5 µM (inactive)
same,GI50,HCT-15,> 71.4 µM
same,GI50,DMS-273,> 100 µM (inactive)
same,GI50,OVCAR-4,> 100 µM (inactive)
same,GI50,UACC-62,> 100 µM (inactive)
same,GI50,COLO 205,> 31.6 µM (inactive)
same,GI50,SK-MEL-28,> 100 µM (inactive)
same,GI50,ACHN,> 100 µM (inactive)
same,GI50,SF-539,> 100 µM (inactive)
same,GI50,K562,84.3 µM (inactive)
same,GI50,DMS-114,> 31.6 µM (inactive)
same,GI50,HOP-62,> 100 µM (inactive)
same,GI50,OVCAR-8,> 100 µM (inactive)
same,GI50,M19-MEL,> 100 µM (inactive)
same,GI50,SF-295,> 100 µM (inactive)
same,GI50,MOLT-4,4.43 µM (inactive)
same,GI50,XF498,> 100 µM (inactive)
same,GI50,HCC 2998,> 100 µM (inactive)
same,GI50,HT-29,> 100 µM (inactive)
same,GI50,LOX IMVI,> 100 µM (inactive)
same,GI50,SNB-19,> 100 µM (inactive)
same,GI50,SNB-78,> 100 µM (inactive)

# Source: ChEMBL document CHEMBL1201862, “PubChem BioAssay data set” (2004)
